# Results as given in US9365549B2, “Hepatitis C virus inhibitors” (THERAVANCE BIOPHARMA R&D IP, LLC, priority 2012, dated 2016).
# Tested on: HCV genotype 1a replicon cell line
# Assay: HCV Genotype 1a Replicon Assay
# Type: cell-based
# Conditions: Hepatitis C virus, Huh7.5 cell background, NS3-specific protease activity in lysates, 48 or 72 hours, read-out: pEC50 Genotype 1a (converted)
# Procedure: Assay 2: HCV Genotype 1a Replicon Assay
# The HCV genotype 1a replicon cell line was obtained from Apath LLC (APC89; Huh7.5 cell background). This subgenomic replicon contains the N-terminus of the HCV core protein fused to the neomycin-resistance selectable marker. The EMCV IRES lies downstream and drives expression of the non-structural proteins NS3-NS5B. Compound potencies were determined using the NS3-specific protease activity in lysates as a measurement of compound inhibition of replicon levels.
# Cells were grown at 37° C. in a 5% CO2 humidified incubator in DMEM (Invitrogen) with 10% FBS (HyClone), 1×NEAA (Invitrogen), 1× Pen-Strep (Invitrogen), and 850 μg/mL G418 (Invitrogen). On day 1 of the assay, cells were plated at 15,000 cells/well in black 96-well tissue culture plates (Costar) in 200 μL media lacking G418. […] Compounds were initially diluted in DMSO and then diluted another 200× in media to bring the final DMSO concentration down to 0.5%. The cells were incubated with test compounds for 48 or 72 hours. At the end of the incubation period, media and compound were removed from the plates.
# To determine the NS3-specific protease activity in lysates, the cells were lysed at room temperature in 50 μL/well of 50 mM Hepes pH 7.5, 150 mM NaCl, 15% Glycerol, 0.15% Triton X-100, 10 mM DTT for 20 minutes with shaking. 50 μL of an NS3/4a protease-specific FRET substrate (Anaspec RET S1 Cat#22991) was then added to the wells at a final concentration of 15 μM. The plates were incubated at 37° C. for 20 minutes, which corresponds to a timepoint at which the protease activity is still in the linear phase. Protease activity was determined by measuring fluorescence (Excitation: 340 nm; Emission: 509 nm).
# To analyze the data, the fluorescence was plotted vs. the compound concentration, and EC50 values were determined from a 4-parameter robust fit model using GraphPad Prism software.
row,Structure (SMILES),EC50 [nM]
1,"COC(=O)N[C@H](C(=O)N1CC(C)=C[C@H]1c1nc(-c2ccc(-c3cc(Cl)c(NC(=O)c4ccc(N5CCN(C(=O)C(C)(C)C)C[C@H]5C)nc4)cc3OC(F)(F)F)cc2)c[nH]1)C(C)C [Example 1, [(S)-1-((S)-2-{4-[5′-Chloro-4′-({6-[(R)-4-(2,2-dimethyl-propionyl)-2-methyl-piperazin-1-yl]-pyridine-3-carbonyl}-amino)-2′-trifluoromethoxy-biphenyl-4-yl]-1H-imidazol-2-yl}-4-methyl-2,5-dihydro-pyrrole-1-carbonyl)-2-methyl-propyl]-carbamic acid methyl ester]",< 0.1
2,COC(=O)N[C@H](C(=O)N1CC(C)CC[C@H]1c1nc(-c2ccc(-c3cc(Cl)c(NC(=O)c4ccc(N5CCN(C(=O)C(C)(C)C)C[C@H]5C)nc4)cc3OC(F)(F)F)cc2)c[nH]1)C(C)C (stereo partly shown) [Example 1-5],0.1 to 1
3,"COC(=O)N[C@H](C(=O)N1CC(C)=C[C@H]1c1nc(-c2ccc(-c3cc(Cl)c(NC(=O)c4ccc(N5CCN(C(=O)[C@H]6CC6(C)C)C[C@H]5C)nc4)cc3OC(F)(F)F)cc2)c[nH]1)C(C)C [Example 2, ((S)-1-{(S)-2-[4-(5′-Chloro-4′-{[6-((R)-4-(S)-2,2-dimethylcyclopropanecarbonyl-2-methyl-piperazin-1-yl)-pyridine-3-carbonyl]-amino}-2′-trifluoromethoxy-biphenyl-4-yl)-1H-imidazol-2-yl]-4-methyl-2,5-dihydro-pyrrole-1-carbonyl}-2-methyl-propyl)-carbamic acid methyl ester]",< 0.1
4,COC(=O)N[C@H](C(=O)N1CC(C)=C[C@H]1c1nc(-c2ccc(-c3ccc(C(=O)Nc4ccc(N5CC(C)N(C(=O)C6CC6)C[C@H]5C)nc4)cc3OC(F)(F)F)cc2)c[nH]1)C(C)C (stereo partly shown) [Example 2-1],0.1 to 1
5,CNC(=O)N1C[C@@H](C)N(c2ccc(NC(=O)c3ccc(-c4ccc(-c5c[nH]c([C@@H]6C=C(C)CN6C(=O)[C@@H](NC(=O)OC)C(C)C)n5)cc4)c(OC(F)(F)F)c3)cn2)CC1C (stereo partly shown) [Example 2-2],0.1 to 1
6,COC(=O)N[C@H](C(=O)N1CC(C)=C[C@H]1c1nc(-c2ccc(-c3ccc(C(=O)Nc4ccc(N5CC(C)N(C(=O)C(C)(C)C)C[C@H]5C)nc4)cc3OC(F)(F)F)cc2)c[nH]1)C(C)C (stereo partly shown) [Example 2-3],0.1 to 1
7,COC(=O)N[C@H](C(=O)N1CC(C)=C[C@H]1c1nc(-c2ccc(-c3ccc(C(=O)Nc4ccc(N5CC(C)N(C(=O)CNC(C)=O)C[C@H]5C)nc4)cc3OC(F)(F)F)cc2)c[nH]1)C(C)C (stereo partly shown) [Example 2-5],0.1 to 1
8,COC(=O)N[C@H](C(=O)N1CC(C)=C[C@H]1c1nc(-c2ccc(-c3ccc(C(=O)Nc4ccc(N5CC(C)N(C(=O)C6(O)CC6(C)C)C[C@H]5C)nc4)cc3OC(F)(F)F)cc2)c[nH]1)C(C)C (stereo partly shown) [Example 2-6],0.1 to 1
9,COC(=O)N[C@H](C(=O)N1CC(C)=C[C@H]1c1nc(-c2ccc(-c3ccc(C(=O)Nc4ccc(N5CC(C)N(C(=O)C6CC6(Cl)Cl)C[C@H]5C)nc4)cc3OC(F)(F)F)cc2)c[nH]1)C(C)C (stereo partly shown) [Example 2-7],0.1 to 1
10,COC(=O)N[C@H](C(=O)N1CC(C)=C[C@H]1c1nc(-c2ccc(-c3ccc(C(=O)Nc4ccc(N5CC(C)N(C(=O)C(C)(C)NC(=O)C6CCC6)C[C@H]5C)nc4)cc3OC(F)(F)F)cc2)c[nH]1)C(C)C (stereo partly shown) [Example 2-9],0.1 to 1
11,"COC(=O)N[C@H](C(=O)N1CC(C2CC2)=C[C@H]1c1nc(-c2ccc(-c3cc(Cl)c(NC(=O)c4ccc(N5CCN(C(=O)C(C)(C)C)C[C@H]5C)nc4)cc3OC(F)(F)F)cc2)c[nH]1)C(C)C [Example 3, [(S)-1-((S)-2-{4-[5′-Chloro-4′-({6-[(R)-4-(2,2-dimethyl-propionyl)-2-methyl-piperazin-1-yl]-pyridine-3-carbonyl}-amino)-2′-trifluoromethoxy-biphenyl-4-yl]-1H-imidazol-2-yl}-4-cyclopropyl-2,5-dihydro-pyrrole-1-carbonyl)-2-methyl-propyl]-carbamic acid methyl ester]",< 0.1
12,[2H]C([2H])([2H])C1(C([2H])([2H])[2H])CC1C(=O)N1C[C@@H](C)N(c2ccc(NC(=O)c3ccc(-c4ccc5c(ccc6[nH]c([C@@H]7C[C@H](C)CN7C(=O)[C@@H](NC(=O)OC)C(C)C)nc65)c4)c(OC(F)(F)F)c3)cn2)CC1C (stereo partly shown) [Example 3-8],< 0.1
13,COC(=O)N[C@H](C(=O)N1C[C@@H](C)C[C@H]1c1nc2c(ccc3cc(-c4ccc(C(=O)Nc5ccc(N6CC(C)N(C(=O)C(C)(C)C)C[C@H]6C)nc5)cc4OC(F)(F)F)ccc32)[nH]1)C(C)C (stereo partly shown) [Example 3-9],< 0.1
14,COC(=O)N[C@H](C(=O)N1C[C@@H](C)C[C@H]1c1nc2c(ccc3cc(-c4ccc(C(=O)Nc5ccc(N6CC(C)N(C(=O)N(C)C)C[C@H]6C)nc5)cc4OC(F)(F)F)ccc32)[nH]1)C(C)C (stereo partly shown) [Example 3-10],< 0.1
15,COC(=O)N[C@H](C(=O)N1C[C@@H](C)C[C@H]1c1nc2c(ccc3cc(-c4ccc(C(=O)Nc5ccc(N6CC(C)N(C(=O)C7CC7)C[C@H]6C)nc5)cc4OC(F)(F)F)ccc32)[nH]1)C(C)C (stereo partly shown) [Example 3-11],< 0.1
16,COC(=O)N[C@H](C(=O)N1[C@@H]2CC[C@@H](C2)[C@H]1c1nc(-c2ccc(-c3cc(Cl)c(NC(=O)c4ccc(N5CCN(C(=O)C(C)(C)C)C[C@H]5C)nc4)cc3OC(F)(F)F)cc2)c[nH]1)C1CCOCC1 [Example 5-4],< 0.1
17,COC(=O)N[C@H](C(=O)N1[C@@H]2CC[C@@H](C2)[C@H]1c1nc(-c2ccc(-c3cc(Cl)c(NC(=O)c4ccc(N5CCN(C(=O)C(C)(C)C)C[C@H]5C)nc4)cc3OC(F)(F)F)cc2)c[nH]1)C(C)C [Example 5-5],0.1 to 1
18,COC(=O)N[C@H](C(=O)N1[C@@H]2C[C@@H]2CC[C@H]1c1nc(-c2ccc(-c3cc(Cl)c(NC(=O)c4ccc(N5CCN(C(=O)[C@H]6CC6(C)C)C[C@H]5C)nc4)cc3OC(F)(F)F)cc2)c[nH]1)C(C)C [Example 5-8],< 0.1
19,COC(=O)N[C@H](C(=O)N1[C@@H]2C[C@@H]2CC[C@H]1c1nc(-c2ccc(-c3cc(Cl)c(NC(=O)c4ccc(N5CCN(C(=O)C(C)(C)CO)C[C@H]5C)nc4)cc3OC(F)(F)F)cc2)c[nH]1)C(C)C [Example 5-9],< 0.1
20,COC(=O)N[C@H](C(=O)N1C[C@H]2[C@@H]([C@H]1c1nc(-c3ccc(-c4cc(Cl)c(NC(=O)c5ccc(N6CCN(C(=O)C(C)(C)C)C[C@H]6C)nc5)cc4OC(F)(F)F)cc3)c[nH]1)C2(C)C)C(C)C [Example 5-11],0.1 to 1
21,COC(=O)N[C@H](C(=O)N1C[C@H]2[C@@H]([C@H]1c1nc(-c3ccc(-c4cc(Cl)c(NC(=O)c5ccc(N6CCN(C(=O)C(C)(C)C)C[C@H]6C)nc5)cc4OC(F)(F)F)cc3)c[nH]1)C2(C)C)C1CCOCC1 [Example 5-12],0.1 to 1
22,"COC(=O)N[C@H](C(=O)N1C[Si](C)(C)C[C@H]1c1nc(-c2ccc(-c3cc(Cl)c(NC(=O)c4ccc(N5CCN(C(=O)C(C)(C)C)C[C@H]5C)nc4)cc3OC(F)(F)F)cc2)c[nH]1)C(C)C [Example 6, [(S)-1-((R)-5-{4-[5′-Chloro-4′-({6-[(R)-4-(2,2-dimethyl-propionyl)-2-methyl-piperazin-1-yl]-pyridine-3-carbonyl}-amino)-2′-trifluoromethoxy-biphenyl-4-yl]-1H-imidazol-2-yl}-3,3-dimethyl-[1,3]azasilolidine-1-carbonyl)-2-methyl-propyl]-carbamic acid methyl ester]",0.1 to 1
